In article PMC10944509, “Structural and mechanistic insights into activation of the human RNA ligase RTCB by Archease” (Nature Communications, 2024):
Each block holds one molecule with its values, some of them ahead of it.

Legend:
[1] = target: T1, human RTCB-Archease complex (Homo sapiens, UniProt Q8IWT0+Q9Y3I0); experiment: X-ray crystal structure, […] Å; type: binding; details: covalent; phosphoramidate with RTCB H428, formed from GTP in co-crystallization; Mn2+ (sites A, C); 291 K
T1 construct: full-length RTCB from Sf21 insect cells (His6 tag, TEV-cleaved optionally) with Archease isoform 1 from E. coli (N-terminal His6, thrombin site, tag removal optional); 1:1 complex
T1 sequence (Q9Y3I0 1-505): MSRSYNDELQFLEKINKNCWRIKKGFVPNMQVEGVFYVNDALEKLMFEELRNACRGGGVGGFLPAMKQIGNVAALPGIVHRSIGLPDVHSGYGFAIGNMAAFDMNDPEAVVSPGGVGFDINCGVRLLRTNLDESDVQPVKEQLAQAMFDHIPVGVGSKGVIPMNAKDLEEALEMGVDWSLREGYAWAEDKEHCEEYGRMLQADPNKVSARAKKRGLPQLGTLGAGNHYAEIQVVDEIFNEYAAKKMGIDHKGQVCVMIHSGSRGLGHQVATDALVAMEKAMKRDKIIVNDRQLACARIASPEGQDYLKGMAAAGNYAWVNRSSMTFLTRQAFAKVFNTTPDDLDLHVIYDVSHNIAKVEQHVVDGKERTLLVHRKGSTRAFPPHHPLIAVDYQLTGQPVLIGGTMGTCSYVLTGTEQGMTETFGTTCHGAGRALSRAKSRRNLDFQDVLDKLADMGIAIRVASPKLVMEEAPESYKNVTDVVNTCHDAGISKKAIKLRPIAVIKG
T1 sequence (Q8IWT0 1-167): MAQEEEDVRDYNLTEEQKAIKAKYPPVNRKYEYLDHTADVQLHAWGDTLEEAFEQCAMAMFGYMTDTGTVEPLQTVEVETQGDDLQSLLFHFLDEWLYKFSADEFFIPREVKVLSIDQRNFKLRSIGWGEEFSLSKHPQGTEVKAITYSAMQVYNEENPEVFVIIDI

[2] = target: human RTCB (human) (UniProt Q9Y3I0)
[3] = target: T1, human RTCB-Archease complex; experiment: radioactive guanylylation assay, gel autoradiography; type: biochemical; details: covalent; labelled compound (alpha-32P-GTP 80 nM); RTCB 1 µM, Archease 1 µM, 0.5 mM MnCl2, pH 7.5, 30 °C
[4] = target: T1, human RTCB-Archease complex; experiment: X-ray crystal structure, […] Å; type: binding; details: Mn2+ (sites A, B, C); RTCB active site, gamma-phosphate coordinated by Archease-bound Mn2+; non-hydrolyzable GTP analog; 291 K

Molecule: Nc1nc2c(ncn2[C@@H]2O[C@H](COP(=O)(O)O)[C@@H](O)[C@H]2O)c(=O)[nH]1 [GMP]
X-ray crystal structure, 2.2 Å [1]: GTP reacted with the active site histidine H428 to form the guanylylated RTCB-H428-GMP intermediate

apparent rate constant of XBP1 intron circularization by RTCB (250 nM) with 1 uM Archease, GTP and Mn2+; no ligated product without Archease [2]: 0.015 min⁻¹
Molecule: human Archease (isoform 1) (from UniProt Q8IWT0 1-167) (natural protein)

Molecule: Nc1nc2c(ncn2[C@@H]2O[C@H](COP(=O)(O)OP(=O)(O)OP(=O)(O)O)[C@@H](O)[C@H]2O)c(=O)[nH]1 [GTP]
radioactive guanylylation assay, gel autoradiography [3]: We detected the formation of guanylylated RTCB only in the presence of Archease

Molecule: Nc1nc2c(ncn2[C@@H]2O[C@H](COP(=O)(O)CP(=O)(O)OP(=O)(O)O)[C@@H](O)[C@H]2O)c(=O)[nH]1 [GMPCPP, guanosine-5’-[(α,β)-methyleno]triphosphate]
X-ray crystal structure, 2.3 Å [4]: RTCB-Archease complex with a well-resolved GMPCPP molecule in the active site of RTCB
